Active and inactive are the calls of the source.
Tests used:
[1] = biological target: Serine/threonine-protein kinase pim-2 (Homo sapiens, UniProt Q9P1W9)
[2] = biological target: Proto-oncogene tyrosine-protein kinase receptor Ret (Homo sapiens, UniProt P07949)
[3] = biological target: Cyclin-dependent kinase 2 (Homo sapiens, UniProt P24941)
[4] = biological target: High affinity nerve growth factor receptor (Homo sapiens, UniProt P04629)
[5] = biological target: Guanine nucleotide-binding protein G(i) subunit alpha-2 (Homo sapiens, UniProt P04899)
[6] = biological target: Serine/threonine-protein kinase Nek7 (Homo sapiens, UniProt Q8TDX7)
[7] = biological target: Epidermal growth factor receptor (Homo sapiens, UniProt P00533)
[8] = biological target: T1, Phosphatidylinositol 5-phosphate 4-kinase type-2 alpha (Homo sapiens, UniProt P48426)
T1 sequence (P48426 whole entry): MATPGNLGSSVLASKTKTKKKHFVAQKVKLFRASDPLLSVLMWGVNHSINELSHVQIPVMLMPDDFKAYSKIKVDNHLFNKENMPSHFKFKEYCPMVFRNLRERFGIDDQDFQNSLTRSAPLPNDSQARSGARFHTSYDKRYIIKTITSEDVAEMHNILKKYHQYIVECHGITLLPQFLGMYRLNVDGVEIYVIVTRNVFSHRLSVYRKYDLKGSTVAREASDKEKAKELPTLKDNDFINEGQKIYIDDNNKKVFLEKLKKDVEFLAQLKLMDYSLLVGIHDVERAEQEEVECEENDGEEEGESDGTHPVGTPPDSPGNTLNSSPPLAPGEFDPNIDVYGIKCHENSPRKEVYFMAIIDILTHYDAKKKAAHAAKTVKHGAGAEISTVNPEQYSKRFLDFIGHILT

[9] = biological target: Serine/threonine-protein kinase ATR (Homo sapiens, UniProt Q13535)
[10] = biological target: T2, Inhibitor of nuclear factor kappa-B kinase subunit epsilon (Homo sapiens, UniProt Q14164)
T2 sequence (Q14164 whole entry): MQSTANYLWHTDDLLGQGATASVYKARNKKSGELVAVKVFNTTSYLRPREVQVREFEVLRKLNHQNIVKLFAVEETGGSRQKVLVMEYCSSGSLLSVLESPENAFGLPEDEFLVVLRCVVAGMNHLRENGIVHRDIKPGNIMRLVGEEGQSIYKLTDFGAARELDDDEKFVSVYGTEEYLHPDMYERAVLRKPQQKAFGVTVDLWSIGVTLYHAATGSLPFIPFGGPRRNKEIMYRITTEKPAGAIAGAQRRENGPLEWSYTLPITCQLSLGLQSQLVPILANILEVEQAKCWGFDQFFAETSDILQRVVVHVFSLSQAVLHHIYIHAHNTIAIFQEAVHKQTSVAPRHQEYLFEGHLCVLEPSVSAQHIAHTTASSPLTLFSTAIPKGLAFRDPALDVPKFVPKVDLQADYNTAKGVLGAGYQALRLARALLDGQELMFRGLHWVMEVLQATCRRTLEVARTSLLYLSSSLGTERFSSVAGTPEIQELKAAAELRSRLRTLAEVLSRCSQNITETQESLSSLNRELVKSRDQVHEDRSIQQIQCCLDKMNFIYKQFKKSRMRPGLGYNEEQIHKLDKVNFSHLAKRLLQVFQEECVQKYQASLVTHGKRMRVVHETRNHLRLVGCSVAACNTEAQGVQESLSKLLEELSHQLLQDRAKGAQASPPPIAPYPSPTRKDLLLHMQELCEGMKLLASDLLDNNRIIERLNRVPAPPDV

[11] = biological target: Uncharacterized aarF domain-containing protein kinase 5 (Homo sapiens, UniProt Q3MIX3)
[12] = biological target: Dual specificity protein kinase CLK4 (Homo sapiens, UniProt Q9HAZ1)
[13] = biological target: T3, Adenine phosphoribosyltransferase (Homo sapiens, UniProt P07741)
T3 sequence (P07741 whole entry): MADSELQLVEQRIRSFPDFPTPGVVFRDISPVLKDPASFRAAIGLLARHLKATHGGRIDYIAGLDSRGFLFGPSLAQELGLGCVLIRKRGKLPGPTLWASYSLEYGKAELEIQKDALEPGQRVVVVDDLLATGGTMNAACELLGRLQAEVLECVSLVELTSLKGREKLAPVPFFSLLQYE

[14] = biological target: Dual specificity protein kinase CLK2 (Homo sapiens, UniProt P49760)
[15] = biological target: Serine/threonine-protein kinase 38-like (Homo sapiens, UniProt Q9Y2H1)
Also: in the data inactive means no Kd found up to 30 µM.

Sequence of Dual specificity protein kinase CLK4 (Q9HAZ1 whole entry): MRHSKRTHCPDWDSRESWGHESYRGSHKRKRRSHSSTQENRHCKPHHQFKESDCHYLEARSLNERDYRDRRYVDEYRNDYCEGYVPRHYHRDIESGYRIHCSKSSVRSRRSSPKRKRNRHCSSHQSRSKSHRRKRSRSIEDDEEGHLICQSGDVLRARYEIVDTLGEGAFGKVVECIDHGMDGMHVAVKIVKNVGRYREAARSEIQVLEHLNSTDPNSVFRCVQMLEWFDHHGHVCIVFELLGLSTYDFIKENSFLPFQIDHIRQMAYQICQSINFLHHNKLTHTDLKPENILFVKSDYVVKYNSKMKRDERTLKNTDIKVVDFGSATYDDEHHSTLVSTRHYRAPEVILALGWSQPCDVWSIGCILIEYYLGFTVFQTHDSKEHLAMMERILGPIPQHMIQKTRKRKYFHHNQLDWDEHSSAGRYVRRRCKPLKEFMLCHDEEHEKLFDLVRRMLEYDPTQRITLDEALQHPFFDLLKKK
Sequence of Serine/threonine-protein kinase 38-like (Q9Y2H1 whole entry): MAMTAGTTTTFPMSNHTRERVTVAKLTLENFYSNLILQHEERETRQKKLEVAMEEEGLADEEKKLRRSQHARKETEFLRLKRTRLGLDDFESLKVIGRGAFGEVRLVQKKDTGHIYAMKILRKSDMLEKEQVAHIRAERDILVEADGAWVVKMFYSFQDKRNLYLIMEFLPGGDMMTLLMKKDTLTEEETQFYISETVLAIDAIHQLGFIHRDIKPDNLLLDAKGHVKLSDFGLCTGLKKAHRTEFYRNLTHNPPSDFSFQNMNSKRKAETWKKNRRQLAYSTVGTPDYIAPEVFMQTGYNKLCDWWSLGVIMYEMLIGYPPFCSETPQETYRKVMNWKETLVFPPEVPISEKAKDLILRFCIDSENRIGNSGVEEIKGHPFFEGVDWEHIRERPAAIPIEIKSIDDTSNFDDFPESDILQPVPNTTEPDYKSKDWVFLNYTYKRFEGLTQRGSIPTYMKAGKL
Sequence of Serine/threonine-protein kinase ATR (Q13535 whole entry): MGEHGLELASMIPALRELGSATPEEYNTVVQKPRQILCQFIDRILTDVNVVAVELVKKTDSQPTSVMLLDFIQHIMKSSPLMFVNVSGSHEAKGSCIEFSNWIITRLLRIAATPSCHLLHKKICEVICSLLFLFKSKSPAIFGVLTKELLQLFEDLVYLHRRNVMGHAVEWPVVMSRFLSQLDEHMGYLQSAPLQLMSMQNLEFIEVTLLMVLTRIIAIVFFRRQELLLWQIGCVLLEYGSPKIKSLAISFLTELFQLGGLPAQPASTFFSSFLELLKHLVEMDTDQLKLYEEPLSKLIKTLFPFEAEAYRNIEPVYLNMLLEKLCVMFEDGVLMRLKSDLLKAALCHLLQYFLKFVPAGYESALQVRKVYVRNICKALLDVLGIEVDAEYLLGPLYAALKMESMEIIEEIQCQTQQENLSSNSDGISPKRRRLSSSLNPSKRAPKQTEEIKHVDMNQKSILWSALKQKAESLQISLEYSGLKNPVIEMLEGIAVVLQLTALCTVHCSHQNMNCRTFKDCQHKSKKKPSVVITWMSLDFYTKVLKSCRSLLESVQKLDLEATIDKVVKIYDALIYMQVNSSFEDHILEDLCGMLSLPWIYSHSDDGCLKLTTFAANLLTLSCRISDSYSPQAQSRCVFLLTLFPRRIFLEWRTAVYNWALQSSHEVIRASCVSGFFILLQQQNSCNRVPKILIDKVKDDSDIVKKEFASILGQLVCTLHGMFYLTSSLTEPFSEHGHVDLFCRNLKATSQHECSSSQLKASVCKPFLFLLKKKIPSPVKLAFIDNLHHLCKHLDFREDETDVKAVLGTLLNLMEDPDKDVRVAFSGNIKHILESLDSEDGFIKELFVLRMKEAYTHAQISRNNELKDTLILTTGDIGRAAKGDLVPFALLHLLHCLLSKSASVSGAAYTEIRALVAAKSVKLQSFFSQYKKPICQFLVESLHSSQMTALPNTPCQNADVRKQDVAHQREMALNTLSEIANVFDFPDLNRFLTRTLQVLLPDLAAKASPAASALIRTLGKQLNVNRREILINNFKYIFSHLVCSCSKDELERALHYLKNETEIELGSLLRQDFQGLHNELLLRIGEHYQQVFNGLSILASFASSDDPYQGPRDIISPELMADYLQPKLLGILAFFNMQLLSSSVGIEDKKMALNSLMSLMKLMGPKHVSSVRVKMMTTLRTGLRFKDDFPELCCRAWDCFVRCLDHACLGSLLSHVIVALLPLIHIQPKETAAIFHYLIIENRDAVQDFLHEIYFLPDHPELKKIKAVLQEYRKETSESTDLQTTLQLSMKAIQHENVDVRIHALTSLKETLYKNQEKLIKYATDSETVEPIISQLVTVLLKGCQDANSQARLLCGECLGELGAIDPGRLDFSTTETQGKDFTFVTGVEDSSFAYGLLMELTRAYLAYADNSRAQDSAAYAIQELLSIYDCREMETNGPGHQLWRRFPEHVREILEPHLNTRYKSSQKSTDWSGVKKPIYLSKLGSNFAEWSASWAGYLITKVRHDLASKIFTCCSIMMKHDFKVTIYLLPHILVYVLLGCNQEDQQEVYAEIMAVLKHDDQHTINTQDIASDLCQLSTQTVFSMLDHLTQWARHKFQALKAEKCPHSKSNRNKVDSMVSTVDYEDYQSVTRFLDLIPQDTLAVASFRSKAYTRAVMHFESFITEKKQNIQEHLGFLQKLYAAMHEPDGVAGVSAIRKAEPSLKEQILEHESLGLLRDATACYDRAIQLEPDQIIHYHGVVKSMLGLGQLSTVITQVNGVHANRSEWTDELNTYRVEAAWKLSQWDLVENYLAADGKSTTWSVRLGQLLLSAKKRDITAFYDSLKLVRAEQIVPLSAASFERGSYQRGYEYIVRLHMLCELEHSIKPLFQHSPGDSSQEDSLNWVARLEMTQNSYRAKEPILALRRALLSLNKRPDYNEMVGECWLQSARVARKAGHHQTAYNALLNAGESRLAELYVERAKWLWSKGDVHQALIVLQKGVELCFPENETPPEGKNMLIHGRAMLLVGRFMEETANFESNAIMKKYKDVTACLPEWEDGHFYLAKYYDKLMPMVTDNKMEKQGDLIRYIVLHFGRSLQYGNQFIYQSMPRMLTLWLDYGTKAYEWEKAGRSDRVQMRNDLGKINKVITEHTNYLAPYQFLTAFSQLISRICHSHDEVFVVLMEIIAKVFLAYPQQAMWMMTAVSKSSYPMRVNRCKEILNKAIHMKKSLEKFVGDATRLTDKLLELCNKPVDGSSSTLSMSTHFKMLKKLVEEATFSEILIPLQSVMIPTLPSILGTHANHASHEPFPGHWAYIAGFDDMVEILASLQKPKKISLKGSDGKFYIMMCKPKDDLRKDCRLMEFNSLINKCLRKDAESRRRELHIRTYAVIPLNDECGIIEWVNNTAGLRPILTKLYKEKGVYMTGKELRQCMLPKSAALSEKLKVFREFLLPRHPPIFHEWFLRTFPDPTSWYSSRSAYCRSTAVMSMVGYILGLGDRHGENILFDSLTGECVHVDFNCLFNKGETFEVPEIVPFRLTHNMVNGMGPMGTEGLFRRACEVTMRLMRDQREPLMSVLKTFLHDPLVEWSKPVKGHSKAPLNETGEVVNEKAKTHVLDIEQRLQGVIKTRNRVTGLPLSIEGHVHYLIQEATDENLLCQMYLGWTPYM
Sequence of Uncharacterized aarF domain-containing protein kinase 5 (Q3MIX3 whole entry, the tested form may be a part): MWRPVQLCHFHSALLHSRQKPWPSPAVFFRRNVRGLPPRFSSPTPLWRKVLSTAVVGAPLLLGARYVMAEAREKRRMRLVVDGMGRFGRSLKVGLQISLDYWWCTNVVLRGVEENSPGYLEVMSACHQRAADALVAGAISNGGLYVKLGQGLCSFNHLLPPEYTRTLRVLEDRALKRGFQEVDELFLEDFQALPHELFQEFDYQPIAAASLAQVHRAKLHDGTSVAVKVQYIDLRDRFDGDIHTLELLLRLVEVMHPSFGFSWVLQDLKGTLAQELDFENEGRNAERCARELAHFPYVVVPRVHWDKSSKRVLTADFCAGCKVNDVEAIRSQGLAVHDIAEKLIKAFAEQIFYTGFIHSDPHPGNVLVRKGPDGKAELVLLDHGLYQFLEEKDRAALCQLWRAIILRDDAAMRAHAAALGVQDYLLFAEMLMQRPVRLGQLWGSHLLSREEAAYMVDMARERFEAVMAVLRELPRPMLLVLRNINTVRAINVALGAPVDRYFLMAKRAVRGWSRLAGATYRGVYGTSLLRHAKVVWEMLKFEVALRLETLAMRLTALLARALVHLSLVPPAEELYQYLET
Sequence of Guanine nucleotide-binding protein G(i) subunit alpha-2 (P04899 whole entry): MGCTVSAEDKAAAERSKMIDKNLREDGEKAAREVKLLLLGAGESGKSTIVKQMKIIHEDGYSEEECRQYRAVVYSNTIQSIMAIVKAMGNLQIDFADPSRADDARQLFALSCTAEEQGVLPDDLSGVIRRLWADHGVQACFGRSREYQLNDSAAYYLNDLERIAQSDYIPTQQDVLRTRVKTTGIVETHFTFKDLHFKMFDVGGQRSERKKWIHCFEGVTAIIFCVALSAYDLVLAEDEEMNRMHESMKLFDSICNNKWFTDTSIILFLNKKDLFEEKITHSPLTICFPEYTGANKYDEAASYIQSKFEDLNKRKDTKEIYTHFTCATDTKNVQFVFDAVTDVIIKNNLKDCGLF
Sequence of Serine/threonine-protein kinase Nek7 (Q8TDX7 whole entry): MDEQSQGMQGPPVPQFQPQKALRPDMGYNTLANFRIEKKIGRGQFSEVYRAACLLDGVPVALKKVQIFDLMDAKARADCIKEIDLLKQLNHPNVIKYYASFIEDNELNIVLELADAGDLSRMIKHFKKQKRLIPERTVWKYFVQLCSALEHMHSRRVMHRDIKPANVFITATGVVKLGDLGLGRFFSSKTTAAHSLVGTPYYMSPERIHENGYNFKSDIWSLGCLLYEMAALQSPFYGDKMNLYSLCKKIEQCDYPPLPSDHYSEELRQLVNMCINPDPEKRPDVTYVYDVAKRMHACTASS

Structure (SMILES)	Kd [1]	Kd [2]	Kd [3]	Kd [4]	Kd [5]	Kd [6]	Kd [7]	Kd [8]	Kd [9]	Kd [10]	Kd [11]	Kd [12]	Kd [13]	Kd [14]	Kd [15]
Cn1ncc(Cl)c1-c1cc(C(=O)N[C@H](CN)Cc2cccc(F)c2)sc1Cl [AFURESERTIB]	> 30 µM (inactive)	> 30 µM (inactive)	> 30 µM (inactive)	> 30 µM (inactive)	> 30 µM (inactive)	> 30 µM (inactive)	> 30 µM (inactive)								
CN(C)C(=O)c1cc2cnc(Nc3ccc(N4CCNCC4)cn3)nc2n1C1CCCC1 [RIBOCICLIB]	> 30 µM (inactive)	> 30 µM (inactive)		> 30 µM (inactive)	> 30 µM (inactive)	> 30 µM (inactive)	> 30 µM (inactive)	> 30 µM (inactive)	> 30 µM (inactive)	> 30 µM (inactive)	> 30 µM (inactive)	> 30 µM (inactive)			
CC(C)Nc1cc(-c2c[nH]c(C(=O)N[C@H](CO)c3cccc(Cl)c3)c2)c(Cl)cn1 [ULIXERTINIB]		> 30 µM (inactive)	> 30 µM (inactive)	> 30 µM (inactive)		> 30 µM (inactive)	> 30 µM (inactive)	> 30 µM (inactive)		> 30 µM (inactive)	> 30 µM (inactive)	> 30 µM (inactive)	> 30 µM (inactive)		
CN1CCN(c2ccc3nc(-c4c(N)c5c(F)cccc5[nH]c4=O)[nH]c3c2)CC1 [DOVITINIB]								> 30 µM (inactive)			> 30 µM (inactive)				
CCn1c(=O)c(-c2cc[nH]n2)cc2c(C)nc(N)nc21 [VOXTALISIB]		> 30 µM (inactive)	> 30 µM (inactive)	> 30 µM (inactive)	> 30 µM (inactive)		> 30 µM (inactive)	> 30 µM (inactive)					> 30 µM (inactive)		
Cn1cc(-c2ccc(F)c(C(F)(F)F)c2)nc1C1CCN(c2ncnc3[nH]ncc23)CC1 [LY-2584702]	> 30 µM (inactive)	> 30 µM (inactive)	> 30 µM (inactive)	> 30 µM (inactive)	> 30 µM (inactive)		> 30 µM (inactive)	> 30 µM (inactive)		> 30 µM (inactive)			> 30 µM (inactive)		
N[C@@H]1CCCN(c2c(/C=C3\SC(=O)NC3=O)cccc2-c2ccccc2)C1		> 30 µM (inactive)	> 30 µM (inactive)	> 30 µM (inactive)	> 30 µM (inactive)		> 30 µM (inactive)	> 30 µM (inactive)		> 30 µM (inactive)	> 30 µM (inactive)		> 30 µM (inactive)	> 30 µM (inactive)	
CNC(=O)c1ccc(C)c(-n2c(C)cc(OCc3ccc(F)cc3F)c(Br)c2=O)c1 [PH-797804]		> 30 µM (inactive)	> 30 µM (inactive)		> 30 µM (inactive)		> 30 µM (inactive)			> 30 µM (inactive)	> 30 µM (inactive)			> 30 µM (inactive)	
CCn1c(-c2nonc2N)nc2c(C#CC(C)(C)O)ncc(OC[C@H]3CCCNC3)c21 [GSK-690693]													> 30 µM (inactive)		
C1=C/COCc2cc(ccc2OCCN2CCCC2)Nc2nccc(n2)-c2cccc(c2)COC/1 [PACRITINIB]		> 30 µM (inactive)	> 30 µM (inactive)	> 30 µM (inactive)			> 30 µM (inactive)			0.715 µM (active)			> 30 µM (inactive)		
CNC(=O)c1ccc(-c2cnc3ncc(Cc4ccc5ncccc5c4)n3n2)cc1F [CAPMATINIB]	> 30 µM (inactive)	> 30 µM (inactive)	> 30 µM (inactive)	> 30 µM (inactive)	> 30 µM (inactive)	> 30 µM (inactive)	> 30 µM (inactive)	> 30 µM (inactive)	> 30 µM (inactive)	> 30 µM (inactive)	> 30 µM (inactive)		> 30 µM (inactive)		
C[C@@H](c1ccc2nccn2c1)n1nnc2ncc(-c3cnn(C)c3)nc21 [SAVOLITINIB]		> 30 µM (inactive)	> 30 µM (inactive)				> 30 µM (inactive)	> 30 µM (inactive)	> 30 µM (inactive)	> 30 µM (inactive)		> 30 µM (inactive)	> 30 µM (inactive)	> 30 µM (inactive)	> 30 µM (inactive)
Cc1cn(-c2cc(NC(=O)c3ccc(C)c(Nc4nccc(-c5cccnc5)n4)c3)cc(C(F)(F)F)c2)cn1 [NILOTINIB]								> 30 µM (inactive)							
Nc1nc(N)c2nc(-c3cccc(O)c3)c(-c3cccc(O)c3)nc2n1 [TG100-115]					> 30 µM (inactive)		> 30 µM (inactive)	7.02 µM	> 30 µM (inactive)						
CN1N=C(N)c2cn([C@@H]3O[C@H](COP(=O)(O)O)[C@@H](O)[C@H]3O)c3ncnc1c23 [TRICIRIBINE PHOSPHATE]		> 30 µM (inactive)	> 30 µM (inactive)	> 30 µM (inactive)		> 30 µM (inactive)	> 30 µM (inactive)	> 30 µM (inactive)		> 30 µM (inactive)			> 30 µM (inactive)		
Cc1cc([C@@H](C)Nc2ccccc2C(=O)O)c2nc(N3CCOCC3)cc(=O)n2c1 [AZD-6482]		> 30 µM (inactive)	> 30 µM (inactive)	> 30 µM (inactive)	> 30 µM (inactive)		> 30 µM (inactive)		> 30 µM (inactive)	> 30 µM (inactive)	> 30 µM (inactive)	> 30 µM (inactive)	> 30 µM (inactive)	> 30 µM (inactive)	> 30 µM (inactive)
Cc1nc(N)sc1-c1ccnc(Nc2ccc(N3CCOCC3)cc2)n1 [CYC-116]						> 30 µM (inactive)		> 30 µM (inactive)					> 30 µM (inactive)		
COc1cc(N2CCC(N3CCN(C)CC3)CC2)ccc1Nc1ncnc(Nc2ccccc2S(=O)(=O)C(C)C)n1 [ASP-3026]	> 30 µM (inactive)	> 30 µM (inactive)	> 30 µM (inactive)	> 30 µM (inactive)	> 30 µM (inactive)		20.8 µM (active)		> 30 µM (inactive)	> 30 µM (inactive)	> 30 µM (inactive)	> 30 µM (inactive)		> 30 µM (inactive)	
O=c1sn(-c2cccc3ccccc23)c(=O)n1Cc1ccccc1 [TIDEGLUSIB]		> 30 µM (inactive)	> 30 µM (inactive)	> 30 µM (inactive)			> 30 µM (inactive)			> 30 µM (inactive)		> 30 µM (inactive)	> 30 µM (inactive)	> 30 µM (inactive)	> 30 µM (inactive)
C[C@@H](Nc1cc(F)cc(F)c1)c1cc(C(=O)N(C)C)cc2c(=O)cc(N3CCOCC3)oc12 [AZD-8186]		> 30 µM (inactive)	> 30 µM (inactive)	> 30 µM (inactive)	> 30 µM (inactive)		> 30 µM (inactive)	> 30 µM (inactive)	> 30 µM (inactive)	> 30 µM (inactive)					
CN1CCC(CNc2ccc3ncc(-c4cccc(OC(F)(F)F)c4)n3n2)CC1 [SGI-1776]		3.22 µM (active)	> 30 µM (inactive)	> 30 µM (inactive)	> 30 µM (inactive)	> 30 µM (inactive)	> 30 µM (inactive)	> 30 µM (inactive)		> 30 µM (inactive)			> 30 µM (inactive)	> 30 µM (inactive)	
